{"source": "patent US9201014B2", "about": "“Development of photostable near-IR cyanine dyes for in vivo imaging” (National University of Singapore, priority 2010, dated 2015)", "key": {"[1]": {"assay": "Absorbance and fluorescence maximum wavelengths and quantum yields of the CyNA library", "format": "physicochemical", "details": "for λabs, absorbance maximum wavelength / λem, fluorescence maximum wavelength: CyNA library; for φ, quantum yield: in DMSO, Cardiogreen as standard", "description": "Since the k values of the different CyNA compounds indicated some dependency on the chemical structure of the amine, the CyNA scaffold was derivatized with a broad range of primary amines (FIGS. 4A-4C). The fluorescence properties of the 80-member CyNA library were measured. The absorption maximum wavelengths ranged from 802 nm to 806 nm, emission maximum wavelengths ranged from 817 nm to 823 nm, and the average quantum yield was approximately 0.10 (Table 2).\nAll the chemicals (building block amines plus others) and solvents were purchased from Sigma Aldrich, Alfa Aesar, Fluka, MERCK or Acros, and used without further purification. ^1H-NMR and ^13C-NMR spectra were recorded on Bruker Avance 300 NMR and 500 NMR spectrometers, and chemical shifts are expressed in parts per million (ppm). High-resolution mass spectrometry (HRMS) data was recorded on a Micromass VG 7035. Photobleaching experiments were performed using a UVP Blak-Ray® B-100AP high intensity UV lamp (100 W, 365 nm) Spectroscopic and quantum yield data were measured on a SpectraMax M2 spectrophotometer (Molecular Devices), and the data analysis was performed using GraphPrism 5.0. Photobleaching measurements were performed using an Eclipse Ti-U Nikon microscope (filter cube: 750/800) attached to Ti:sappire oscillator that operated in continuous wave mode, and the data was processed using the software NIS-Elements 3.10. In vivo images were taken in an IVIS Spectrum imaging system (Caliper Life Sciences)."}, "[2]": {"assay": "Primary screening of photostability of the CyNA library (time-course fluorescence, 8 h)", "format": "physicochemical", "parameters": "F/Fo, fluorescent intensity at 8 hours vs 0 hours: unit: %", "details": "10 μM in HEPES 100 mM pH 7.4, 2% DMSO", "description": "As a primary evaluation of photo stability, the decrease in fluorescence intensity of the 80 CyNA compounds was measured (see Table 2). The average decrease in fluorescence intensity after 8 hours of irradiation by a xenon lamp was approximately 18%. A subset of the most photostable compounds (i.e., F/Fo reported in Table 2 was greater than or equal to 95) was examined under stronger irradiation in various buffers.\n10-μM CyNA solutions in 100 mM HEPES buffer (pH 7.4) containing 2% DMSO were placed in a 96-well black plate, and fluorescence intensity measurements were recorded every 10 minutes for a total period of 8 hours (excitation-emission: 790-820 nm). A subset of fourteen compounds selected according to their F8h/Fo quotients, quantum yields and maximum relative fluorescence units (RFU) values was further evaluated in a secondary screening"}}, "data": [{"compound": "CCCN1/C(=C/C=C2\\CCCC(/C=C/C3=[N+](CCC)c4ccccc4C3(C)C)=C2N(CCCN2CCCC2=O)C(C)=O)C(C)(C)c2ccccc21", "note": "[CyNA-11]", "values": [{"measurement": "λabs, absorbance maximum wavelength", "setting": "[1]", "value": 802, "unit": "nm"}, {"measurement": "λem, fluorescence maximum wavelength", "setting": "[1]", "value": 820, "unit": "nm"}, {"measurement": "φ, quantum yield", "setting": "[1]", "value": 0.11}, {"measurement": "F/Fo, fluorescent intensity at 8 hours vs 0 hours", "setting": "[2]", "value": 90}, {"measurement": "max RFU, maximum relative fluorescence units", "setting": "[2]", "value": 1250.1}]}, {"compound": "CCCCCCCCCCCCCCN(C(C)=O)C1=C(/C=C/C2=[N+](CCC)c3ccccc3C2(C)C)CCC/C1=C\\C=C1\\N(CCC)c2ccccc2C1(C)C", "note": "[CyNA-28]", "values": [{"measurement": "λabs, absorbance maximum wavelength", "setting": "[1]", "value": 804, "unit": "nm"}, {"measurement": "λem, fluorescence maximum wavelength", "setting": "[1]", "value": 818, "unit": "nm"}, {"measurement": "φ, quantum yield", "setting": "[1]", "value": 0.05}, {"measurement": "F/Fo, fluorescent intensity at 8 hours vs 0 hours", "setting": "[2]", "value": 87}, {"measurement": "max RFU, maximum relative fluorescence units", "setting": "[2]", "value": 23.9}]}, {"compound": "CCCN1/C(=C/C=C2\\CCCC(/C=C/C3=[N+](CCC)c4ccccc4C3(C)C)=C2N(Cc2ccc3c(c2)OCO3)C(C)=O)C(C)(C)c2ccccc21", "note": "[CyNA-49]", "values": [{"measurement": "λabs, absorbance maximum wavelength", "setting": "[1]", "value": 804, "unit": "nm"}, {"measurement": "λem, fluorescence maximum wavelength", "setting": "[1]", "value": 818, "unit": "nm"}, {"measurement": "φ, quantum yield", "setting": "[1]", "value": 0.10}, {"measurement": "F/Fo, fluorescent intensity at 8 hours vs 0 hours", "setting": "[2]", "value": 95}, {"measurement": "max RFU, maximum relative fluorescence units", "setting": "[2]", "value": 851.3}]}, {"compound": "CCCCCCCCCCCCCN(C(C)=O)C1=C(/C=C/C2=[N+](CCC)c3ccccc3C2(C)C)CCC/C1=C\\C=C1\\N(CCC)c2ccccc2C1(C)C", "note": "[CyNA-55]", "values": [{"measurement": "λabs, absorbance maximum wavelength", "setting": "[1]", "value": 804, "unit": "nm"}, {"measurement": "λem, fluorescence maximum wavelength", "setting": "[1]", "value": 819, "unit": "nm"}, {"measurement": "φ, quantum yield", "setting": "[1]", "value": 0.13}, {"measurement": "F/Fo, fluorescent intensity at 8 hours vs 0 hours", "setting": "[2]", "value": 100}, {"measurement": "max RFU, maximum relative fluorescence units", "setting": "[2]", "value": 162.3}]}, {"compound": "CCCN1/C(=C/C=C2\\CCCC(/C=C/C3=[N+](CCC)c4ccccc4C3(C)C)=C2N(Cc2c(F)cccc2F)C(C)=O)C(C)(C)c2ccccc21", "note": "[CyNA-80]", "values": [{"measurement": "λabs, absorbance maximum wavelength", "setting": "[1]", "value": 804, "unit": "nm"}, {"measurement": "λem, fluorescence maximum wavelength", "setting": "[1]", "value": 817, "unit": "nm"}, {"measurement": "φ, quantum yield", "setting": "[1]", "value": 0.08}, {"measurement": "F/Fo, fluorescent intensity at 8 hours vs 0 hours", "setting": "[2]", "value": 93}, {"measurement": "max RFU, maximum relative fluorescence units", "setting": "[2]", "value": 734.9}]}, {"compound": "CCCN1/C(=C/C=C2\\CCCC(/C=C/C3=[N+](CCC)c4ccccc4C3(C)C)=C2N(CCC(C)(C)C)C(C)=O)C(C)(C)c2ccccc21", "note": "[CyNA-92]", "values": [{"measurement": "λabs, absorbance maximum wavelength", "setting": "[1]", "value": 805, "unit": "nm"}, {"measurement": "λem, fluorescence maximum wavelength", "setting": "[1]", "value": 821, "unit": "nm"}, {"measurement": "φ, quantum yield", "setting": "[1]", "value": 0.09}, {"measurement": "F/Fo, fluorescent intensity at 8 hours vs 0 hours", "setting": "[2]", "value": 64}, {"measurement": "max RFU, maximum relative fluorescence units", "setting": "[2]", "value": 420.2}]}, {"compound": "CCCN(C(C)=O)C1=C(/C=C/C2=[N+](CCC)c3ccccc3C2(C)C)CCC/C1=C\\C=C1\\N(CCC)c2ccccc2C1(C)C", "note": "[CyNA-95]", "values": [{"measurement": "λabs, absorbance maximum wavelength", "setting": "[1]", "value": 806, "unit": "nm"}, {"measurement": "λem, fluorescence maximum wavelength", "setting": "[1]", "value": 818, "unit": "nm"}, {"measurement": "φ, quantum yield", "setting": "[1]", "value": 0.09}, {"measurement": "F/Fo, fluorescent intensity at 8 hours vs 0 hours", "setting": "[2]", "value": 91}, {"measurement": "max RFU, maximum relative fluorescence units", "setting": "[2]", "value": 1027.9}]}, {"compound": "CCCN1/C(=C/C=C2\\CCCC(/C=C/C3=[N+](CCC)c4ccccc4C3(C)C)=C2N(CCC(c2ccccc2)c2ccccc2)C(C)=O)C(C)(C)c2ccccc21", "note": "[CyNA-100]", "values": [{"measurement": "λabs, absorbance maximum wavelength", "setting": "[1]", "value": 804, "unit": "nm"}, {"measurement": "λem, fluorescence maximum wavelength", "setting": "[1]", "value": 819, "unit": "nm"}, {"measurement": "φ, quantum yield", "setting": "[1]", "value": 0.08}, {"measurement": "F/Fo, fluorescent intensity at 8 hours vs 0 hours", "setting": "[2]", "value": 63}, {"measurement": "max RFU, maximum relative fluorescence units", "setting": "[2]", "value": 333.8}]}, {"compound": "CCCN1/C(=C/C=C2\\CCCC(/C=C/C3=[N+](CCC)c4ccccc4C3(C)C)=C2N(Cc2ccccc2C)C(C)=O)C(C)(C)c2ccccc21", "note": "[CyNA-101]", "values": [{"measurement": "λabs, absorbance maximum wavelength", "setting": "[1]", "value": 806, "unit": "nm"}, {"measurement": "λem, fluorescence maximum wavelength", "setting": "[1]", "value": 822, "unit": "nm"}, {"measurement": "φ, quantum yield", "setting": "[1]", "value": 0.08}, {"measurement": "F/Fo, fluorescent intensity at 8 hours vs 0 hours", "setting": "[2]", "value": 86}, {"measurement": "max RFU, maximum relative fluorescence units", "setting": "[2]", "value": 693.9}]}, {"compound": "CCCN1/C(=C/C=C2\\CCCC(/C=C/C3=[N+](CCC)c4ccccc4C3(C)C)=C2N(CCc2cccc(OC)c2)C(C)=O)C(C)(C)c2ccccc21", "note": "[CyNA-102]", "values": [{"measurement": "λabs, absorbance maximum wavelength", "setting": "[1]", "value": 805, "unit": "nm"}, {"measurement": "λem, fluorescence maximum wavelength", "setting": "[1]", "value": 822, "unit": "nm"}, {"measurement": "φ, quantum yield", "setting": "[1]", "value": 0.14}, {"measurement": "F/Fo, fluorescent intensity at 8 hours vs 0 hours", "setting": "[2]", "value": 63}, {"measurement": "max RFU, maximum relative fluorescence units", "setting": "[2]", "value": 998.9}]}, {"compound": "CCCN1/C(=C/C=C2\\CCCC(/C=C/C3=[N+](CCC)c4ccccc4C3(C)C)=C2N(Cc2ccccc2OCC)C(C)=O)C(C)(C)c2ccccc21", "note": "[CyNA-103]", "values": [{"measurement": "λabs, absorbance maximum wavelength", "setting": "[1]", "value": 804, "unit": "nm"}, {"measurement": "λem, fluorescence maximum wavelength", "setting": "[1]", "value": 821, "unit": "nm"}, {"measurement": "φ, quantum yield", "setting": "[1]", "value": 0.14}, {"measurement": "F/Fo, fluorescent intensity at 8 hours vs 0 hours", "setting": "[2]", "value": 92}, {"measurement": "max RFU, maximum relative fluorescence units", "setting": "[2]", "value": 1106.6}]}]}
